The text below walks through data of patent US12421249B2, “Inhibitors of APOL1 and methods of using same” (Vertex Pharmaceuticals Incorporated, priority 2020, dated 2025).

Read-outs that look alike come from different tables or passages of the source. A value given as a limit tells only on which side of the number the result lay.

The IC90 is the point of the concentration-response curve where the effect stands at 90%. The low end stands for an effect from little substance, the high end for a need for much substance.

The target in assay [1] is T1, APOL1 G1 (Homo sapiens, UniProt O14791, I384M/S342G).
T1 sequence (O14791 28-398 S342G/I384M): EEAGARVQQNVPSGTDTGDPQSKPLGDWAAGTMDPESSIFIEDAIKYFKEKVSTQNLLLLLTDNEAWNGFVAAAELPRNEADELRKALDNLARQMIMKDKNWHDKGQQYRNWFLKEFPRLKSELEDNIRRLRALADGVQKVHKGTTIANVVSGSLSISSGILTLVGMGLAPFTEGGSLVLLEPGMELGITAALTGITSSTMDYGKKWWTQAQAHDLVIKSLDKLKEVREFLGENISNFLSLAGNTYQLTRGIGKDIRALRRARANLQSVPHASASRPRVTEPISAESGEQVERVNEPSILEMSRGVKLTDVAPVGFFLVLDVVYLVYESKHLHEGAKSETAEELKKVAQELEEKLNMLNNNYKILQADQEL
Put plainly: Trypanosoma brucei brucei Lysis Assay Using APOL1 Recombinant Protein (AlamarBlue viability readout). Type of assay: cell-based. The following applies: for IC50: IP50 = IC50 for cell proliferation, read-out: Trypanosome Assay IP50; for Emax: read-out: Trypanosome Assay Max Activity (%). The text has this: Trypanosoma brucei brucei is a blood stream parasite to which human, gorillas, and baboons are immune due to the presence of the APOL1 protein in their HDL particles. The protein is uptaken by the parasite via the TbHpHb receptor located in its flagellar pocket and is bonded by the Hpr protein contained in the HDL particles which triggers the receptor endocytosis by the parasite.
Following endocytosis, the formed vesicle containing the HDL particle matures from early to late endosome, and subsequently to lysosome. The concomitant pH change in the lumen of the vesicle triggers the insertion of the APOL1 protein into the membrane of the late endosome/lysosome and hereby triggers lysosomal membrane permeabilization and as a further downstream event, trypanosome lysis. Trypanosoma brucei brucei is sensitive to lysis by all three APOL1 variants (G0, G1, and G2).
The Trypanosoma brucei brucei lysis assay is a lysis assay of the parasite using recombinant APOL1 protein variant followed by a fluorescent detection method of viability by the addition of AlamarBlue reagent to the assay well, a general metabolic redox indicator (AlamarBlue assay).
Briefly, the AlamarBlue active compound, resazurin, a blue, water soluble, non-toxic and cell permeable molecule, which can be followed by absorbance, is reduced by various metabolic pathways into resorufin, a red compound which can be followed by either absorbance or fluorescence. The assay allows the calculation of the percent viability (percent of living Trypanosomes remaining in each well) at the end of a lysis relative to the untreated condition by interpolation of fluorescent values (FLU) on a standard curve with a known amount of seeded trypanosome/well.
Trypanosoma brucei brucei (ATCC, Cat. No. PRA-382)
• Lister 427 VSG 221 bloodstream form.
Equipment • E1-Clip Tip pipette 12 channel adjustable 2-125 μL, Cat. No. 4672070BT • ThermoFisher MultiDrop 384, Cat. No. 5840300 • Multidrop • Agilent Bravo, Cat. No. G5409A • Bravo • SpectraMax M5 Assay Ready Plates (ARPs) • ARPs comes in two formats: • […] final top concentration with a 2.5 fold dilution down. • […] final top concentration with a 3 fold dilution down. • Both have a 10 point Dose response. • 0.1% DMSO final in the Black Assay Plate. • Compounds are diluted 1000 fold in the Black Assay Plate. • Each plate is designed for 14 compounds in duplicate. • In the final Black Assay Plate: • Column 1: Media only (no APOL1) (100% viable) • Column 2-23: 0.05 μg/mL APOL1 (˜EC90) (10% viable with APOL1) • Column 24: 0.1 μg/mL APOL1 (EC100) (Approx. […] Step 2, Day 4 • Centrifuge at 800×g for 5 minutes at room temperature. • Resuspend in 1 mL media. • Make a 1:25 fold dilution (10 μL/240 μL media). • Count on a hemocytometer (after adding parasites). • Let sit for 1-2 minutes for the parasites to settle. • Count should be approximately 100 viable motile parasites/16 grid or approximately 25×10^6 parasites/flask. • Passage the parasites by adding 1×10^6 parasites/T75 flask in 20 mL media. • Passage the parasites by adding 2.33×10^6 parasites/T175 flask in 46.6 mL media. • For every T75 flask should make enough for approximately 1.5×384 well assay plates. • For every T175 flask should make enough for approximately 3.8×384 well assay plates. Step 3, Day 6 • Centrifuge at 800×g for 5 minutes. • Resuspend in 3 mL assay media (No phenol red, no FBS) per 75 starting flask. • Resuspend in 7 mL assay media (No phenol red, no FBS) per 175 flask • Make a 1:25 fold dilution. • Count by hemocytometer. • Every T75 flask set up should have approximately 75×10^6 parasites/flask (verify doubling time=8.7 hours±1 hour). • Every T175 flask set up should have approximately 175×10^6 parasites/flask (verify doubling time=8.7 hours±1 hour). • Require 46×10^6 parasites per 384 well plate (at 120,000 parasites per well). […]
(In general: The colour change of resazurin is a common sign of viable cells or microbes.)

Assay [2] deals with T2, APOL1 (Homo sapiens, UniProt O14791).
T2 sequence (O14791 1-398 S342G/I384M): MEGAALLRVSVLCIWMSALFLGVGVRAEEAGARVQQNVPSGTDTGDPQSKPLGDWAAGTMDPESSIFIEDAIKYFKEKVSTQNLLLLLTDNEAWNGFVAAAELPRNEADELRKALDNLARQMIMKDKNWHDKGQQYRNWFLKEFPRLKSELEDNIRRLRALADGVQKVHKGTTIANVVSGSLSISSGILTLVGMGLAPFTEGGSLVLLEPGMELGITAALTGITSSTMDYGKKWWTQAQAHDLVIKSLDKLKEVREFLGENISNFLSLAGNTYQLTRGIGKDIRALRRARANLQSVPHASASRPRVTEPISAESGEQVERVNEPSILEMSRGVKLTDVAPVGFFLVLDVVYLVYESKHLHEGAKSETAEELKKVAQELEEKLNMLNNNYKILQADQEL
Put plainly: Multi-Tox Assay (MultiTox-Fluor Multiplex Cytotoxicity Assay in tet-inducible APOL1 T-REx-HEK293 cells; Table 46 does not say which APOL1 variant G0/G1/G2). Type of assay: cell-based. The following applies: APOL1 variant not given; for IC50: IP50 = IC50 for cell proliferation.

On to `COc1ccc(C2CC3(CC(C)N2)OCCc2cc(Cl)sc23)nn1` (mixture of isomers) [Compound 76], for which, in assay [1] (Trypanosome Assay), the IC50 was less than 50 nM and the Emax stood at 106%. The same compound registered an IC50 in assay [2] of less than 50 nM.
Turning to `COc1cccc(C2CC3(CC(C)N2)OCCc2cc(Cl)sc23)n1` (mixture of isomers) [Compound 135], in assay [1] (Trypanosome Assay), the IC50 fell in the range of 50 to 500 nM and the Emax is 94%. Further, the IC50 in assay [2] is 50 to 500 nM.
On to `CC1CC2(CC(C)N1)OCCc1cc(Cl)sc12` (mixture of isomers) [Compound 194, 2-chloro-2′,6′-dimethyl-spiro[4,5-dihydrothieno[2,3-c]pyran-7,4′-piperidine]], for which the IC50 in assay [1] (Trypanosome Assay) and in assay [2] was 50 to 500 nM in each case. Moreover, the Emax in assay [1] was found to be 117%.
With `CC1CC2(CC(CO)N1)OCCc1cc(Cl)sc12` (mixture of isomers) [Compound 210, (2-chloro-6′-methyl-spiro[4,5-dihydrothieno[2,3-c]pyran-7,4′-piperidine]-2′-yl)methanol], in assay [1] (Trypanosome Assay), the IC50 is more than 500 nM and the Emax was 104%. The compound also had an IC50 in assay [2] of more than 500 nM.
Turning to `C[C@H]1C[C@@]2(C[C@@H](c3cn(C)nn3)N1)OC[C@H](O)c1cc(Cl)sc12` [Compound 177, (2′S,4R,6′S,7S)-2-chloro-2′-methyl-6′-(1-methyltriazol-4-yl)spiro[4,5-dihydrothieno[2,3-c]pyran-7,4′-piperidine]-4-ol], in assay [1] (Trypanosome Assay), the IC50 lay within 50 to 500 nM and the Emax was 107%.
In the case of `Cc1nccn1CCCn1cc([C@@H]2C[C@]3(C[C@H](C)N2)OCC(F)(F)c2cc(Cl)sc23)nn1` [Compound 341], in assay [2], the “Multi-Tox Assay Max Activity (%)” value came out at 98.0% and the IC50 was in the range of 50 to 500 nM.
The like results for `COCC(O)Cn1cc([C@@H]2C[C@]3(C[C@H](C)N2)OCC(F)(F)c2cc(Cl)sc23)nn1` (stereo partly shown) [Compound 342] were, in that order, 98.0% and 50 to 500 nM.
For `C[C@H]1C[C@@]2(C[C@@H](c3cn(CC4CCCCO4)nn3)N1)OCC(F)(F)c1cc(Cl)sc12` (stereo partly shown) [Compound 343], in that order: 97.0% and 50 to 500 nM.
For `C[C@H]1C[C@@]2(C[C@@H](c3cn(CCCS(C)(=O)=O)nn3)N1)OCC(F)(F)c1cc(Cl)sc12` [Compound 344], in that order: 99.0% and less than 50 nM.
Regarding `CC(C)C(=O)NCCn1cc([C@@H]2C[C@]3(C[C@H](C)N2)OCC(F)(F)c2cc(Cl)sc23)nn1` [Compound 345], in assay [2], the “Multi-Tox Assay Max Activity (%)” value was 99.0% and the IC50 was less than 50 nM.
`C[C@H]1C[C@@]2(C[C@@H](c3cn(Cc4nc5ncccc5[nH]4)nn3)N1)OCC(F)(F)c1cc(Cl)sc12` [Compound 346]: in assay [2], the “Multi-Tox Assay Max Activity (%)” value was found to be 99.0% and the IC50 is 50 to 500 nM.
The like results for `C[C@H]1C[C@@]2(C[C@@H](c3cn(Cc4ccccc4S(C)(=O)=O)nn3)N1)OCC(F)(F)c1cc(Cl)sc12` [Compound 347] were, in that order, 96.0% and 50 to 500 nM.
In the case of `COc1ccc(C(O)Cn2cc([C@@H]3C[C@]4(C[C@H](C)N3)OCC(F)(F)c3cc(Cl)sc34)nn2)cc1` (stereo partly shown) [Compound 348], in assay [2], the “Multi-Tox Assay Max Activity (%)” value came to 97.0% and the IC50 lay within 50 to 500 nM.
For `C[C@H]1C[C@@]2(C[C@@H](c3cn(Cc4n[nH]c5ccccc45)nn3)N1)OCC(F)(F)c1cc(Cl)sc12` [Compound 349], in that order: 91.0% and 50 to 500 nM.
The like results for `C[C@H]1C[C@@]2(C[C@@H](c3cn(Cc4ncnc5[nH]ccc45)nn3)N1)OCC(F)(F)c1cc(Cl)sc12` [Compound 350] were, in that order, 99.0% and less than 50 nM.
The like results for `Cc1cc(C)nc(CCn2cc([C@@H]3C[C@]4(C[C@H](C)N3)OCC(F)(F)c3cc(Cl)sc34)nn2)c1` [Compound 351] were, in that order, 98.0% and less than 50 nM.
`C[C@H]1C[C@@]2(C[C@@H](c3cn(Cc4ccc(C#N)nc4)nn3)N1)OCC(F)(F)c1cc(Cl)sc12` [Compound 352]: in assay [2], the “Multi-Tox Assay Max Activity (%)” value is on record as 99.0% and the IC50 is less than 50 nM.
The like results for `Cc1noc(C)c1Cn1cc([C@@H]2C[C@]3(C[C@H](C)N2)OCC(F)(F)c2cc(Cl)sc23)nn1` [Compound 353] were, in that order, 100.0% and less than 50 nM.
For `C[C@H]1C[C@@]2(C[C@@H](c3cn(CCOc4ccccc4F)nn3)N1)OCC(F)(F)c1cc(Cl)sc12` [Compound 354], in assay [2], the “Multi-Tox Assay Max Activity (%)” value was determined as 99.0% and the IC50 was 50 to 500 nM.
The like results for `C[C@H]1C[C@@]2(C[C@@H](c3cn(Cc4ccc(S(C)(=O)=O)cc4)nn3)N1)OCC(F)(F)c1cc(Cl)sc12` [Compound 355] were, in that order, 98.0% and 50 to 500 nM.
On to `C[C@H]1C[C@@]2(C[C@@H](c3cn(CC(=O)N4CCCCC4)nn3)N1)OCC(F)(F)c1cc(Cl)sc12` [Compound 356], for which, in assay [2], the IC90 lay within 50 to 500 nM, the “Multi-Tox Assay Max Activity (%)” value turned out to be 99.0% and the IC50 lay in the range of 50 to 500 nM.
Consider `C[C@H]1C[C@@]2(C[C@@H](c3cn(CC4(CO)CC4)nn3)N1)OCC(F)(F)c1cc(Cl)sc12` [Compound 357], for which, in assay [2], the “Multi-Tox Assay Max Activity (%)” value was determined as 99.0% and the IC50 was 50 to 500 nM.
For `C[C@H]1C[C@@]2(C[C@@H](c3cn(Cc4cnc5cnccn45)nn3)N1)OCC(F)(F)c1cc(Cl)sc12` [Compound 358], in that order: 98.0% and less than 50 nM.
Regarding `C[C@H]1C[C@@]2(C[C@@H](c3cn(CCCO)nn3)N1)OCC(F)(F)c1cc(Cl)sc12` [Compound 359], in assay [2], the “Multi-Tox Assay Max Activity (%)” value worked out at 98.0% and the IC50 was less than 50 nM.
For `COc1ccc(Cn2cc([C@@H]3C[C@]4(C[C@H](C)N3)OCC(F)(F)c3cc(Cl)sc34)nn2)cn1` [Compound 360], in that order: 99.0% and 50 to 500 nM.
